The structures appear in SMILES notation. In brackets after ≈: the same amount, converted by molar mass. Where two headings read alike, the source gives them in different places.

One assay has as its system E. coli 12140. Kind of assay: In vivo mouse protection (Table 2), E. coli 12140. The text has this: (§1) Compound names corresponding to numbers are given in the experimental section. For comparative purposes, data for cephamandole, which is 7-mandelamido-3-(1-methyltetrazol-5-ylthiomethyl)-3-cephem-4-carboxylic acid, is also given in Tables 1 and 2.
The subject of the next assay is Proteus morgani 179. In words: MIC in vitro (Table 1), Proteus morgani 179. The class given is cell-based. Particulars: read-out: MIC.
Source text: as §1

The test system of a further assay is Strep. Faecalis HH 34358. Kind of assay: MIC in vitro (Table 1), Strep. Faecalis HH 34358. Type of assay: cell-based.
Source text: as §1

A further assay deals with Shigella HH 117. In words: MIC in vitro (Table 1), Shigella HH 117. The class given is cell-based. Particulars: Shigella, HH117, in vitro, read-out: MIC. From the text: (§2) The compounds of Formula I have antibacterial activity against both Gram-positive and Gram-negative organisms. […] Compound names corresponding to numbers are given in the experimental section. For comparative purposes, data for cephamandole, which is 7-mandelamido-3-(1-methyltetrazol-5-ylthiomethyl)-3-cephem-4-carboxylic acid, is also given in Tables 1 and 2.

A further assay concerns Kleb. pneumo. 4200. Kind of assay: In vivo mouse protection (Table 2), Kleb. pneumo. 4200.
Source text: as §1

For the next assay, the system named is Kleb. pneumo. SK 1200. Kind of assay: MIC in vitro (Table 1), Kleb. pneumo. SK 1200. Type of assay: cell-based.
Source text: as §1

A further assay concerns Salmonella ATCC 12176. Kind of assay: MIC in vitro (Table 1), Salmonella ATCC 12176. The class given is cell-based.
Source text: as §2

The subject of a further assay is Pseudo. sp. HH 63. Kind of assay: MIC in vitro (Table 1), Pseudo. sp. HH 63. The class given is cell-based. The conditions noted are these: in vitro, Pseudo. sp. HH 63; read-out: MIC.
Source text: as §2

The test system of assay [1] is Entero. aerog. ATCC 13048. In words: MIC in vitro (Table 1), Entero. aerog. ATCC 13048. The class given is cell-based.
Source text: as §1

The subject of the next assay is Entero. cloacae HH 31254. Kind of assay: MIC in vitro (Table 1), Entero. cloacae HH 31254. Type of assay: cell-based. Particulars: Enterobacter cloacae.
Source text: as §1

The next assay deals with Serra. Marc. ATCC 13880. In words: MIC in vitro (Table 1), Serra. Marc. ATCC 13880. The class given is cell-based.
Source text: as §1

Another assay deals with S. aureus HH 127. Kind of assay: MIC in vitro (Table 1), S. aureus HH 127. Type of assay: cell-based. The conditions noted are these: Staphylococcus aureus.
Source text: as §1

Another assay relates to Kleb. pneumo. SK 4200. Kind of assay: MIC in vitro (Table 1), Kleb. pneumo. SK 4200. The class given is cell-based.
Source text: as §1

In the next assay the test system is E. coli SK 12140. In words: MIC in vitro (Table 1), E. coli SK 12140. Particulars: Escherichia coli, SK12140, in vitro. The class given is cell-based.
Source text: as §1

Another assay deals with E. coli HH 33779. In words: MIC in vitro (Table 1), E. coli HH 33779. The conditions noted are these: Escherichia coli, HH33779, in vitro, E. coli HH 33779; read-out: MIC. Type of assay: cell-based.
Source text: as §1

The test system of the next assay is S. aureus SK 23390. In words: MIC in vitro (Table 1), S. aureus SK 23390. The class given is cell-based. The conditions noted are these: Staphylococcus aureus, SK23390.
Source text: as §1

Setting [2] is: Escherichia coli, 12140, po, E. coli 12140, p.o.
The mark [3] stands for this setting: Escherichia coli, 12140, sc, E. coli 12140, s.c.
The mark [4] stands for this setting: Enterococcus faecalis, in vitro, Strep. Faecalis HH 34358, read-out: MIC.
[5] abbreviates: Salmonella, ATCC12176, in vitro, read-out: MIC.
The mark [6] stands for this setting: HH127, in vitro, S. aureus HH 127, read-out: MIC.
[7] abbreviates: in vitro, Kleb. pneumo. SK 4200, read-out: MIC.
[8] abbreviates: HH31254, in vitro, Entero. cloacae HH 31254, read-out: MIC.
The mark [9] stands for this setting: in vitro, Entero. aerog. ATCC 13048, read-out: MIC.

For the compound `O=C(O)CCn1nnnc1SCC1=C(C(=O)O)N2C(=O)C(NC(=O)[C@H](O)c3ccccc3)[C@H]2SC1` (stereo partly drawn) [VIII, 7-D-Mandelamido-3-[1-(2-carboxyethyl)tetrazol-5-ylthiomethyl]-3-cephem-4-carboxylic acid], the ED50 in the assay on E. coli 12140 (setting [2]) stood at 50 mg/kg; in the assay with E. coli 12140 (setting [3]), 0.86 mg/kg; in the assay on Kleb. pneumo. 4200 (po, Kleb. pneumo. 4200, p.o.), 25 mg/kg; in the assay on Kleb. pneumo. 4200 (sc, Kleb. pneumo. 4200, s.c.) it was 0.46 mg/kg. For the same compound, the MIC in the assay on Proteus morgani 179 was found to be 6.3 µg/mL (≈ 12.1 µM); in the assay on Strep. Faecalis HH 34358 (setting [4]) it was 50 µg/mL (≈ 96.1 µM); against Strep. Faecalis HH 34358 (in vitro, Strep. Faecalis HH 34358), 100 µg/mL (≈ 192 µM); in the assay on Shigella HH 117, 0.8 µg/mL (≈ 1.54 µM); against Kleb. pneumo. SK 1200, 0.8 µg/mL (≈ 1.54 µM); with Kleb. pneumo. SK 1200 (read-out: MIC), 1.6 µg/mL (≈ 3.07 µM). Further, the MIC with Salmonella ATCC 12176 (setting [5]) is 0.8 µg/mL (≈ 1.54 µM); against Salmonella ATCC 12176 (in vitro) it was 0.4 µg/mL (≈ 0.768 µM); in the assay with Pseudo. sp. HH 63 it was greater than 200 µg/mL; in [1], 3.1 µg/mL (≈ 5.96 µM); against Entero. cloacae HH 31254 (HH31254), 3.1 µg/mL (≈ 5.96 µM); in the assay with Serra. Marc. ATCC 13880, 12.5 µg/mL (≈ 24 µM). In addition, the MIC is 100 µg/mL (≈ 192 µM) in the assay on Serra. Marc. ATCC 13880 (in vitro, Serra. Marc. ATCC 13880); 50 µg/mL (≈ 96.1 µM) in the assay on Serra. Marc. ATCC 13880 (in vitro, Serra. Marc. ATCC 13880, read-out: MIC); 3.1 µg/mL (≈ 5.96 µM) against S. aureus HH 127 (HH127); 1.6 µg/mL (≈ 3.07 µM) with S. aureus HH 127 (setting [6]); 1.6 µg/mL (≈ 3.07 µM) in the assay with Kleb. pneumo. SK 4200 (in vitro, Kleb. pneumo. SK 4200); 0.8 µg/mL (≈ 1.54 µM) in the assay on Kleb. pneumo. SK 4200 (setting [7]). Besides, the MIC came out at 0.4 µg/mL (≈ 0.768 µM) against E. coli SK 12140 and 1.6 µg/mL (≈ 3.07 µM) in the assay on E. coli SK 12140 (read-out: MIC).
Turning to `O=C(O)CCCn1nnnc1SCC1=C(C(=O)O)N2C(=O)C(NC(=O)[C@H](O)c3ccccc3)[C@H]2SC1` (stereo partly drawn) [XII, 7-D-Mandelamido-3-[1-(3-carboxypropyl)tetrazol-5-ylthiomethyl]-3-cephem-4-carboxylic acid], the ED50 in the assay on E. coli 12140 (setting [2]) is greater than 50 mg/kg; in the assay with E. coli 12140 (setting [3]), 1.84 mg/kg; with Kleb. pneumo. 4200 (sc, Kleb. pneumo. 4200, s.c.), 2.9 mg/kg. For the same compound, the MIC against Strep. Faecalis HH 34358 (Enterococcus faecalis) came out at 12.5 µg/mL (≈ 23.4 µM); in the assay with Shigella HH 117, 0.4 µg/mL (≈ 0.748 µM); against Kleb. pneumo. SK 1200 it was 1.6 µg/mL (≈ 2.99 µM); in the assay on Kleb. pneumo. SK 1200 (read-out: MIC) it was 0.8 µg/mL (≈ 1.5 µM); in the assay with E. coli HH 33779, 1.6 µg/mL (≈ 2.99 µM); in the assay on Salmonella ATCC 12176 (setting [5]), 0.4 µg/mL (≈ 0.748 µM). For the same compound, the MIC was 0.8 µg/mL (≈ 1.5 µM) in the assay on Salmonella ATCC 12176 (in vitro); greater than 200 µg/mL in the assay on Pseudo. sp. HH 63; 3.1 µg/mL (≈ 5.8 µM) in assay [1]; 0.8 µg/mL (≈ 1.5 µM) in the assay with Entero. cloacae HH 31254 (setting [8]); 12.5 µg/mL (≈ 23.4 µM) in the assay with Serra. Marc. ATCC 13880; 3.1 µg/mL (≈ 5.8 µM) in the assay with S. aureus HH 127 (HH127). For the same compound, the MIC in the assay with Kleb. pneumo. SK 4200 (setting [7]) was determined as 1.6 µg/mL (≈ 2.99 µM); in the assay on S. aureus SK 23390, 0.4 µg/mL (≈ 0.748 µM); with E. coli SK 12140 (read-out: MIC) it was 1.6 µg/mL (≈ 2.99 µM).
As to `NC(=O)CCCCCn1nnnc1SCC1=C(C(=O)O)N2C(=O)C(NC(=O)[C@H](O)c3ccccc3)[C@H]2SC1` (stereo partly drawn) [XIV, 7-D-Mandelamido-3-[1-(5-carbamoylpentyl)tetrazol-5-ylthiomethyl]-3-cephem-4-carboxylic acid], the ED50 stood at 1.1 mg/kg in the assay with E. coli 12140 (setting [3]) and 1.1 mg/kg with Kleb. pneumo. 4200 (sc, Kleb. pneumo. 4200, s.c.). The MIC with Strep. Faecalis HH 34358 (Enterococcus faecalis) was 12.5 µg/mL (≈ 22.3 µM); with Shigella HH 117 it was 0.8 µg/mL (≈ 1.42 µM); in the assay with Kleb. pneumo. SK 1200 (read-out: MIC), 3.1 µg/mL (≈ 5.52 µM); in the assay with E. coli HH 33779, 3.1 µg/mL (≈ 5.52 µM); in the assay with Salmonella ATCC 12176 (setting [5]), 3.1 µg/mL (≈ 5.52 µM); in the assay with Pseudo. sp. HH 63, greater than 200 µg/mL. Also, the MIC stood at 6.3 µg/mL (≈ 11.2 µM) in [1] (setting [9]); 1.6 µg/mL (≈ 2.85 µM) in the assay on Entero. cloacae HH 31254 (setting [8]); 25 µg/mL (≈ 44.5 µM) in the assay with Serra. Marc. ATCC 13880; 1.6 µg/mL (≈ 2.85 µM) with S. aureus HH 127 (setting [6]); 1.6 µg/mL (≈ 2.85 µM) with Kleb. pneumo. SK 4200 (setting [7]); 0.4 µg/mL (≈ 0.712 µM) in the assay on S. aureus SK 23390. In addition, the MIC in the assay with E. coli SK 12140 (read-out: MIC) amounted to 3.1 µg/mL (≈ 5.52 µM).
For the compound `O=C(O)CCCCCn1nnnc1SCC1=C(C(=O)O)N2C(=O)C(NC(=O)[C@H](O)c3ccccc3)[C@H]2SC1` (stereo partly drawn) [XIII, 7-D-Mandelamido-3-[1-(5-carboxypentyl)tetrazol-5-ylthiomethyl]-3-cephem-4-carboxylic acid], the 50% effective dose (ED50) is 1.56 mg/kg with E. coli 12140 (setting [3]) and 0.54 mg/kg with Kleb. pneumo. 4200 (sc, Kleb. pneumo. 4200, s.c.). Further, the minimum inhibitory concentration (MIC) in the assay with Proteus morgani 179 was 1.6 µg/mL (≈ 2.84 µM); in the assay with Strep. Faecalis HH 34358 (setting [4]), 25 µg/mL (≈ 44.4 µM); with Shigella HH 117, 0.8 µg/mL (≈ 1.42 µM); with Kleb. pneumo. SK 1200 (read-out: MIC) it was 1.6 µg/mL (≈ 2.84 µM); in the assay with E. coli HH 33779, 3.1 µg/mL (≈ 5.51 µM); with Salmonella ATCC 12176 (setting [5]), 1.6 µg/mL (≈ 2.84 µM). The MIC in the assay with Pseudo. sp. HH 63 is greater than 200 µg/mL; in assay [1] (setting [9]), 6.3 µg/mL (≈ 11.2 µM); against Entero. cloacae HH 31254 (HH31254), 0.8 µg/mL (≈ 1.42 µM); in the assay with S. aureus HH 127 (setting [6]), 3.1 µg/mL (≈ 5.51 µM); against Kleb. pneumo. SK 4200, 0.8 µg/mL (≈ 1.42 µM); against S. aureus SK 23390, 0.8 µg/mL (≈ 1.42 µM). Moreover, the minimal inhibitory concentration (MIC) in the assay on E. coli SK 12140 (read-out: MIC) came out at 1.6 µg/mL (≈ 2.84 µM).
